Targets include Cytochrome P450 2C9 (Homo sapiens, UniProt P11712); Cytochrome P450 2C19 (Homo sapiens, UniProt P33261); Cytochrome P450 2D6 (Homo sapiens, UniProt P10635).
The next assay has as its target T1, Cytochrome P450 1A2 (Homo sapiens, UniProt P05177). Note: in other assays of this panel Not Active means under 50% inhibition at 10 µM.
T1 sequence (P05177 whole entry): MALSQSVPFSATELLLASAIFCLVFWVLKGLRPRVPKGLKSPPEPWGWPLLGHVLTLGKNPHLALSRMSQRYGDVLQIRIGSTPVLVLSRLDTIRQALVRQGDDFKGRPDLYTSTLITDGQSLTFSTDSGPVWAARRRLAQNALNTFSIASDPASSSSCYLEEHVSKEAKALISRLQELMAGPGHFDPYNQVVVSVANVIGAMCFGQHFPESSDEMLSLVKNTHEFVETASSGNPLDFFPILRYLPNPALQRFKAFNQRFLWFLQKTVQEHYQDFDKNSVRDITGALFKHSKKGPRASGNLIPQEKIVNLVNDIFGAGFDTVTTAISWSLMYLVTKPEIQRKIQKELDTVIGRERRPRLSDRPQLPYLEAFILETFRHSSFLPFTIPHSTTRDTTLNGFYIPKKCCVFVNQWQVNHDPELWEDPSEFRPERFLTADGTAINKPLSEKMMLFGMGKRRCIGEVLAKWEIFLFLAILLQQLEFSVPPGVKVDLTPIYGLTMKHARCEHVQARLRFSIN

In another assay the target is T2, Androgen receptor (Rattus norvegicus, UniProt P15207). Note: in other assays of this panel Not Active means under 50% inhibition at 10 µM.
T2 sequence (P15207 whole entry): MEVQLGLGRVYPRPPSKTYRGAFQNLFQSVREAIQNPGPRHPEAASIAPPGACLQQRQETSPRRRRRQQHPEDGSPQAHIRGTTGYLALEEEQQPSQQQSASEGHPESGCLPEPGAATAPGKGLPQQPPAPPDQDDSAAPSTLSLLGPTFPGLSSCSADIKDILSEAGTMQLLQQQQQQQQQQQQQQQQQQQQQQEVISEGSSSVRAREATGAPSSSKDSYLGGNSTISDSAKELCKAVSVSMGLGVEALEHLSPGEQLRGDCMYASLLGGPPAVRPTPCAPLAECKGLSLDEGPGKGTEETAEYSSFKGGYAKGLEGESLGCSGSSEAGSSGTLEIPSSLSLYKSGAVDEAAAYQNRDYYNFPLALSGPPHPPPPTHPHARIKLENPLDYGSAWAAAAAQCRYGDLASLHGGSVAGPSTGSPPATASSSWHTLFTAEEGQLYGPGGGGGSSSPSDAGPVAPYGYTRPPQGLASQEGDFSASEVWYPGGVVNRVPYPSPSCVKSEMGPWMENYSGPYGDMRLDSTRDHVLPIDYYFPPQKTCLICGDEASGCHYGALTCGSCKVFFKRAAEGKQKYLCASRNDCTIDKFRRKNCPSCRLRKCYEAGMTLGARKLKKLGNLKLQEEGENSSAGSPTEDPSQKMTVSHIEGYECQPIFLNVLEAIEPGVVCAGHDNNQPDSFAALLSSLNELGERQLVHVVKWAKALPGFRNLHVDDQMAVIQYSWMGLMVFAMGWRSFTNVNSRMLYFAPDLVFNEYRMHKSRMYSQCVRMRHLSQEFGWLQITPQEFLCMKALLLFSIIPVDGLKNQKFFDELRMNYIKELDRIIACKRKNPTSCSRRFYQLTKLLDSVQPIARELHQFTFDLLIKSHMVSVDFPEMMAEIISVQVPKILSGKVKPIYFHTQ

Another assay addresses T3, Estrogen receptor (Homo sapiens, UniProt P03372).
T3 sequence (P03372 whole entry): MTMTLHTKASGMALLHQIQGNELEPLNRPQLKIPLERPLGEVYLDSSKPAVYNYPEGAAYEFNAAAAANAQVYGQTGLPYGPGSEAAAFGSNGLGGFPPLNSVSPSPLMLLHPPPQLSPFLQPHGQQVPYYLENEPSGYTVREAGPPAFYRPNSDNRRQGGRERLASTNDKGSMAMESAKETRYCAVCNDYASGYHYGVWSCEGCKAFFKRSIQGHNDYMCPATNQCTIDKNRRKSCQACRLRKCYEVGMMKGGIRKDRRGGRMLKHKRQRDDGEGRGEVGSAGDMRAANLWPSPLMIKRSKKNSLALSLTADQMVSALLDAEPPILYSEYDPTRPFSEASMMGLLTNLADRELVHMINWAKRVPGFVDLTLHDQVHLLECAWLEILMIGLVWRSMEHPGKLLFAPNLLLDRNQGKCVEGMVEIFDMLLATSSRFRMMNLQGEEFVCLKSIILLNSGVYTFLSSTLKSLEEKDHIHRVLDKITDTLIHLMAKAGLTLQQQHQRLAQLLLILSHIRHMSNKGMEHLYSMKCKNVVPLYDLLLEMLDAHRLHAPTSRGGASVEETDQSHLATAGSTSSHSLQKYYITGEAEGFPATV
The following applies: sf9.

A short description of assay [1]: DRUGMATRIX: Imidazoline I2, Central radioligand binding (ligand: [3H] Idazoxan). The format is cell membranes, Rattus norvegicus, Wistar, Cerebral cortex, Membrane. The following applies: Not Active = under 50% inhibition at 10 µM.
Assay [2] is described as follows: DRUGMATRIX: Interleukin IL-1 radioligand binding (ligand: [125I] interleukin 1beta). The format is cell membranes, Membrane. The following applies: nih3t3; Not Active = under 50% inhibition at 10 µM.
Assay [3] in a line: DRUGMATRIX: GABAA, Chloride Channel, TBOB radioligand binding (ligand: [3H] TBOB). The format is cell membranes, Rattus norvegicus, Wistar, Cerebral cortex, Membrane. The following applies: Not Active = under 50% inhibition at 10 µM.
In another assay the target is Glycine receptor (Rattus norvegicus, UniProt P07727+P20781+P22771+P24524). The format is cell membranes, Wistar, Spinal cord, Membrane. Note: in other assays of this panel Not Active means under 50% inhibition at 10 µM.
Chain of Glycine receptor (P22771 whole entry): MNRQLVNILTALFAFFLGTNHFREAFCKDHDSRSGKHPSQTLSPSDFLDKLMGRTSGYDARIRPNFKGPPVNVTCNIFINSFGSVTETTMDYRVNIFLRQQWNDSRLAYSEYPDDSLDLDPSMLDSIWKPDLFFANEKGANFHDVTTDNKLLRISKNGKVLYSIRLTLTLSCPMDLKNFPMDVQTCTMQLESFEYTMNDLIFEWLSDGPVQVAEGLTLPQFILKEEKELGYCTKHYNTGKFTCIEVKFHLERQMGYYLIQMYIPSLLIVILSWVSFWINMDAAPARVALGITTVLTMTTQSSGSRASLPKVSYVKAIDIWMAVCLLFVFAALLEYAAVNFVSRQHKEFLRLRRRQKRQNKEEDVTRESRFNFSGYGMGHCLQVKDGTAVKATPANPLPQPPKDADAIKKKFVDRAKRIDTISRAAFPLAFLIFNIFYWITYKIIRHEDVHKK
Chain of Glycine receptor (P24524 whole entry): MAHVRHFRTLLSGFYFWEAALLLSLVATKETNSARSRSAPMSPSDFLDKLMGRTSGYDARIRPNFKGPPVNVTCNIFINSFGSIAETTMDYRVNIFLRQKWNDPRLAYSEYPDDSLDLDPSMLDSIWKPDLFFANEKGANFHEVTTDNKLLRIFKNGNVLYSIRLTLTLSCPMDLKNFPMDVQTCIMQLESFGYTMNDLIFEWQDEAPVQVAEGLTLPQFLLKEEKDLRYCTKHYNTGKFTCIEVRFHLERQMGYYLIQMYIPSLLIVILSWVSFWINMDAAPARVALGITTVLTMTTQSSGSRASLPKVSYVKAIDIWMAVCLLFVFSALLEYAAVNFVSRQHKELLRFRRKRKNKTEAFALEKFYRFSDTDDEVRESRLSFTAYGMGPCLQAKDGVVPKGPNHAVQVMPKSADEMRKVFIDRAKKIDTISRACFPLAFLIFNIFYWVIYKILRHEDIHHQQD
Chain of Glycine receptor (P07727 whole entry): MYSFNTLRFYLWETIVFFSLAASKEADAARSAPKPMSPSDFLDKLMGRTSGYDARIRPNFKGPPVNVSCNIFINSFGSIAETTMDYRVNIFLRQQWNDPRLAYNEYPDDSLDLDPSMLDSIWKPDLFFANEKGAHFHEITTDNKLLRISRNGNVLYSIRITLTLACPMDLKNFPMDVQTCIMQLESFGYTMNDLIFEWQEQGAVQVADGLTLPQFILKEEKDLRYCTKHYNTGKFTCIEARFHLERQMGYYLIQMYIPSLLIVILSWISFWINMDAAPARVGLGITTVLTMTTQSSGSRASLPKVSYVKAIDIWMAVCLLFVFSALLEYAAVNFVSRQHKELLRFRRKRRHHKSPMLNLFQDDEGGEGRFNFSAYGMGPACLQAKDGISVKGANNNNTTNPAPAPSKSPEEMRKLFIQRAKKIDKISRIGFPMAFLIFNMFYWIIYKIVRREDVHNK
Chain of Glycine receptor (P20781 whole entry): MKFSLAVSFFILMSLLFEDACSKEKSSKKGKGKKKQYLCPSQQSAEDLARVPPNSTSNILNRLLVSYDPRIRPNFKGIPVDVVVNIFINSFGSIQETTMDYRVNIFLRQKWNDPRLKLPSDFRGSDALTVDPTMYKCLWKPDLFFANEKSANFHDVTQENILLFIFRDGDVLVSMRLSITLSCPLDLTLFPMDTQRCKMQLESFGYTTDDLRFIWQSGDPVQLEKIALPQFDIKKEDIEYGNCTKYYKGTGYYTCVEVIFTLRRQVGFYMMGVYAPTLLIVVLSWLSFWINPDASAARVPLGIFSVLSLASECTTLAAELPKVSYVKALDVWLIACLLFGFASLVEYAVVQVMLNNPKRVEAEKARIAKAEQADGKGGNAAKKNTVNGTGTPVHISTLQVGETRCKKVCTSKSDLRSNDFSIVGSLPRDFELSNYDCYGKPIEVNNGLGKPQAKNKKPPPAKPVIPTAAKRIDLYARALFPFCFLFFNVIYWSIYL

Chain of Cytochrome P450 2C19 (P33261 whole entry): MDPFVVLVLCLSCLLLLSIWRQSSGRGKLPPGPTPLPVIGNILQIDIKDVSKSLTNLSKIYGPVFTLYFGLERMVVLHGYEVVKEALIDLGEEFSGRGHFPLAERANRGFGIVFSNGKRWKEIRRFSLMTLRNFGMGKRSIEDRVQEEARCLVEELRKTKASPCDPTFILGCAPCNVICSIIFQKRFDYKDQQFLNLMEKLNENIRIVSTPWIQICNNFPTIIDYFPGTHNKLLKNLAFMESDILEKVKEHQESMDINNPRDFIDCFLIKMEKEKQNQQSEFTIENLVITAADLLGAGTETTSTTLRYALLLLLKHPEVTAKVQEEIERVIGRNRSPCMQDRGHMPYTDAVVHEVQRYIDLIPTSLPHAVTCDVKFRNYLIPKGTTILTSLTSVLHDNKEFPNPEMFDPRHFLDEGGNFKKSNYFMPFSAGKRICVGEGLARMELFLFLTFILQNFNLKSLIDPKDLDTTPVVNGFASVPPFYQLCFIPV
Chain of Cytochrome P450 2D6 (P10635 whole entry): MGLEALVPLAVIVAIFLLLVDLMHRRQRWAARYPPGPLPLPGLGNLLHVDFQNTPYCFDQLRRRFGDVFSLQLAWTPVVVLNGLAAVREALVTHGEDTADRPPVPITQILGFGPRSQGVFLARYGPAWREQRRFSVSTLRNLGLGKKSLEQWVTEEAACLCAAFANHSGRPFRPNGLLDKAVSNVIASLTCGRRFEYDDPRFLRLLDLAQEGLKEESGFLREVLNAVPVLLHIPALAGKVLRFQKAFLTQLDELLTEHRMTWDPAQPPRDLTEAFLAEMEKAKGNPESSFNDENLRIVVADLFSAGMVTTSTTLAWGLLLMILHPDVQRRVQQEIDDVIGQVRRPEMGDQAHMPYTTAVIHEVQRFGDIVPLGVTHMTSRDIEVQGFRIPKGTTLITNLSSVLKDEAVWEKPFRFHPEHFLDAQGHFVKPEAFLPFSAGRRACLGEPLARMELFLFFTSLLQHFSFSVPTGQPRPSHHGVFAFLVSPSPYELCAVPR
Chain of Cytochrome P450 2C9 (P11712 whole entry): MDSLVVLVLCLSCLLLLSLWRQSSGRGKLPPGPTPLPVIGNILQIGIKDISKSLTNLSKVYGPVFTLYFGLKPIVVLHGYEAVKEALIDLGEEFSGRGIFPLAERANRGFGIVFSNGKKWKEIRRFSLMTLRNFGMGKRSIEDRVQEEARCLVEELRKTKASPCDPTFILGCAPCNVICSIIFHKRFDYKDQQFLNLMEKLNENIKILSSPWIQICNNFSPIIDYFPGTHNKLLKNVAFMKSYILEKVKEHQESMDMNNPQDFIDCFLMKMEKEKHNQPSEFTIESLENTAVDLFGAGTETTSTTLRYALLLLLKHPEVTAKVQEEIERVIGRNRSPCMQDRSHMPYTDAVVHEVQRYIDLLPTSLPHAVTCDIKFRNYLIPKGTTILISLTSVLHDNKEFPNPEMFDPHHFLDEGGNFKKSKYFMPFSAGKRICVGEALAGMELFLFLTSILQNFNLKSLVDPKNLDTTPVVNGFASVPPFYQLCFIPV

For `C[S+]([O-])c1ccc(-c2nc(-c3ccncc3)c(-c3ccc(F)cc3)[nH]2)cc1` (centres undefined) [SB-203580], the 50% inhibitory concentration (IC50) is 2000 nM on Cytochrome P450 1A2; “Not Active” against Androgen receptor; 1000 nM against Cytochrome P450 2C9; 800 nM against Cytochrome P450 2C19; 2000 nM against Cytochrome P450 2D6; “Not Active” against Estrogen receptor.
In the case of `O=C1C[C@@H]2OCC=C3CN4CC[C@]56c7ccccc7N1[C@H]5[C@H]2[C@H]3C[C@H]46` [STRYCHNINE], the half-maximal inhibitory concentration (IC50) entry in [1] is “Not Active”; in assay [2] it was “Not Active”; in assay [3], “Not Active”; at Glycine receptor, 8.29 nM. For the same compound, the Ki entry is “Not Active” in [1], “Not Active” in assay [2], “Not Active” in [3] and 4.69 nM at Glycine receptor.

The values are drawn from ChEMBL document CHEMBL1909046, “DrugMatrix in vitro pharmacology data”.
